Assay results: patent US4322370A, “Polycyclic compounds” (Beecham Group Limited, priority 1975, dated 1982)

Legend:
[1] = Reduction in food intake in hungry rats after oral administration (anorexic activity); type: in vivo; settings: 10 mg/kg
Procedure: The useful anorexic activity of 4-(4-chlorophenyl)-2, 2-dimethyl-7-(2-dimethylaminoethoxy)-1-methylidene tetralin and 4-(4-chlorophenyl-1,2,2,-trimethyl-7-(2-dimethylaminoethoxy) tetralin were determined by the oral administration to hungry rats of the compound and measuring the reduction in their food intake. The results are as follows: […]

[2] = tested on: reserpine-induced hypothermia; test: Reserpine Prevention test (prevention of reserpine-induced hypothermia in mice); type: in vivo; settings: Mus musculus, read-out: Approximate Dose required mg/kg (dose at which compounds are active on the Reserpine Prevention Test in Mice)
Source text: The results given in Table 1 were obtained for compounds of the formula (XIII): [drawing 22]

[3] = Oral toxicity in mice (deaths, LD50); settings: for Min Dose (mg/kg) at which deaths occurred: mice; for LD50: mouse, in vivo, po
in vivo = settings: mouse, po

For C=C1c2cc(OCCN(C)C)ccc2C(c2ccc(Cl)cc2)CC1(C)C (centres unmarked) [4-(4-Chlorophenyl)-2,2-dimethyl-7-(2-dimethylaminoethoxy)-1-methylidene tetralin], the “reduction in food intake” value [1] was 51%.
With CC1c2cc(OCCN(C)C)ccc2C(c2ccc(Cl)cc2)CC1(C)C (centres unmarked) [CH2 CH3 CHCH3 Cl H, 4-(4-Chlorophenyl)-1,2,2-trimethyl-7-(2-dimethylaminoethoxy)tetralin] the minimal effective dose [2] was 3 mg/kg, the “reduction in food intake” value [1] was 35% and the “Min Dose (mg/kg) at which deaths occurred” value (“Min Dose (mg/kg)” below) [3] was greater than 100 mg/kg. For the same compound, the LD50 [3] was greater than 100 mg/kg.
In the case of CN(C)CCOc1ccc2c(c1)C(Cl)C(C)(C)CC2c1ccc(Cl)cc1 (centres unmarked) [CH2 CH3 CHCl Cl H, 1-Chloro-4-(4-chlorophenyl)-2,2-dimethyl-7-(2-dimethylaminoethoxy)tetralin], the minimal effective dose [2] is reported as 0.1 mg/kg, the “Min Dose (mg/kg)” value [3] is reported as 30 mg/kg and the LD50 [3] is reported as 33 mg/kg.
With CN(C)CCOc1ccc2c(c1)C(O)C(C)(C)CC2c1ccc(Cl)cc1 (centres unmarked) [CH2 CH3 CHOH Cl H, 4-(4-Chlorophenyl)-1-hydroxy-2,2-dimethyl-7-(2-dimethylaminoethoxy)tetralin] the LD50 (in vivo) was 11 mg/kg, the minimal effective dose [2] was 0.1 mg/kg and the “Min Dose (mg/kg)” value [3] was 3 mg/kg.
In the case of CN(C)CCOc1ccc2c(c1)C(=O)C(C)(C)CC2c1ccc(Cl)c(Cl)c1 (centres unmarked) [CH2 CH3 CO Cl Cl, 4-(3,4-Dichlorophenyl)-2,2-dimethyl-7-(2-dimethylaminoethoxy)-1-tetralone], the minimal effective dose [2] is reported as 1 mg/kg, the “Min Dose (mg/kg)” value [3] is reported as 10 mg/kg and the LD50 [3] is reported as 10 to 30 mg/kg.
With CN(C)CCOc1ccc2c(c1)C(=O)C(C)(C)CC2c1ccc(Cl)cc1 (centres unmarked) [CH2 CH3 CO Cl H, 4-(4-Chlorophenyl)-2,2-dimethyl-7-(2-dimethylaminoethoxy)-1-tetralone] the minimal effective dose [2] was 0.03 mg/kg, the “Min Dose (mg/kg)” value [3] was 10 mg/kg and the LD50 [3] was 55 mg/kg.
For CN(C)CCOc1ccc2c(c1)C(=O)C(C)(C)CC2c1cccc(C(F)(F)F)c1 (centres unmarked) [CH2 CH3 CO H CF3, 4-(3-Trifluoromethylphenyl)-2,2-dimethyl-7-(2-dimethylaminoethoxy)-1-tetralone], the minimal effective dose [2] was 3 mg/kg, the “Min Dose (mg/kg)” value [3] was greater than 100 mg/kg and the LD50 [3] was greater than 100 mg/kg.
For CNCC(O)COc1ccc2c(c1)C(=O)C(C)(C)CC2c1ccc(Cl)c(Cl)c1 (centres unmarked) [H CO Cl Cl, 4-(3,4-Dichlorophenyl)-7-(2-hydroxy-3-methylaminopropoxy)-2,2-dimethyl-1-tetralone], the minimal effective dose [2] was 1 mg/kg, the “Min Dose (mg/kg)” value [3] was greater than 100 mg/kg and the LD50 [3] was 100 mg/kg.
